Results on five compounds are retold here after ChEMBL document CHEMBL3046230, “Diversity and antifeedant activity of diterpenes from Turkish species of Sideritis” (2000).

Common to all, as to assay type: functional
The subject of test [1] is Spodoptera frugiperda. Put plainly: Antifeedant activity against Spodoptera frugiperda (fall armyworm) assessed as feeding index at 100 ppm after 18 hr relative to control.
Test [2] relates to Spodoptera littoralis. The test can be described thus: Antifeedant activity against Spodoptera littoralis assessed as feeding index at 100 ppm after 18 hr relative to control.
For test [3], the system named is Spodoptera littoralis. Put plainly: Phagostimulant activity against Spodoptera littoralis assessed as feeding index at 100 ppm after 18 hr relative to control.

Each structure is given as a SMILES string.

Consider `CC1=C[C@]23C[C@H]1CC[C@H]2[C@]1(C)CCC[C@](C)(CO)[C@H]1C[C@@H]3O`, for which the AFI in test [1] was determined as 13%; in test [2], 27%.
For the compound `CC(=O)OC[C@]1(C)[C@H]2C[C@H](O)[C@]34C=C(C)[C@H](CC[C@H]3[C@]2(C)CC[C@H]1O)C4`, the AFI in test [1] is 12%.
On to `C=C1C[C@]23C[C@H]1CC[C@H]2[C@]1(C)CC[C@@H](O)[C@](C)(CO)[C@H]1C[C@@H]3O`, for which, in test [3], the FI was 52. For the same compound, the AFI in test [1] is on record as 21%.
As for `C=C1C[C@@]23C[C@@H]1CC[C@H]2[C@]1(C)CC[C@@H](O)[C@](C)(COC(C)=O)[C@@H]1C[C@@H]3O` [LINEAROL], in test [1], the AFI is reported as 8%.
On to `C[C@]1(CO)CCC[C@]2(C)[C@H]1C[C@H](O)[C@@]13C[C@@H](CC[C@@H]21)[C@]1(C)O[C@@H]13` [SIDEROXOL], for which the AFI in test [1] was found to be 54%; in test [2], 9%.
